Results: US20200237742A1, “Serdexmethylphenidate Conjugates, Compositions And Methods Of Use Thereof” (priority 2018, published 2020)
Structures can show the parent of a compound that is named as a salt.

System: recreational stimulant abusers
Test: Intravenous study, treatment-emergent adverse events
Conditions: SDX Cl 30 mg (N = 31), d-MPH HCl 15 mg (N = 30)
Experimental: A study was conducted in humans to assess the intravenous abuse potential of serdexmethylphenidate relative to unconjugated d-methylphenidate and placebo in recreational stimulant abusers. This was a Phase 1, randomized, double-blind study in which serdexmethylphenidate and d-methylphenidate were administered intravenously in recreational stimulant users with a history of non-oral abuse. In Part A of the study, subjects (Cohort 1) participated in a dose-escalation phase to determine the optimal dose of intravenous d-methylphenidate based on tolerability and abuse-related pharmacodynamic assessments. […] The doses of serdexmethylphenidate and d-methylphenidate are equivalent with respect to molar amount of d-methylphenidate. FDA-recommended abuse potential measures and blood samples were collected at different times after dosing. Safety assessments were performed throughout the study.

SMILES	TEAE: Change in sustained attention	TEAE: Dry mouth	TEAE: Energy increased	TEAE: Euphoric mood	TEAE: Feeling abnormal	TEAE: Feeling hot	TEAE: Feeling jittery	TEAE: Feeling of relaxation	TEAE: Headache	TEAE: Heart rate increased	TEAE: Hyperhidrosis (sweaty hands)	TEAE: Hypervigilance	TEAE: Nausea	TEAE: Palpitations	TEAE: Paraesthesia (tingling)	TEAE: Sinus tachycardia	TEAE: Somnolence	TEAE: Tachycardia
COC(=O)[C@H](c1ccccc1)[C@H]1CCCCN1 [d-methylphenidate hydrochloride, d-threo-methylphenidate hydrochloride]	2 (6.7) n (%)	6 (20.0) n (%)	1 (3.3) n (%)	17 (56.7) n (%)	2 (6.7) n (%)	6 (20.0) n (%)	2 (6.7) n (%)	1 (3.3) n (%)	1 (3.3) n (%)	5 (16.7) n (%)	4 (13.3) n (%)	10 (33.3) n (%)	3 (10.0) n (%)	2 (6.7) n (%)	2 (6.7) n (%)	4 (13.3) n (%)	4 (13.3) n (%)	4 (13.3) n (%)
COC(=O)[C@H](c1ccccc1)[C@H]1CCCCN1C(=O)OC[n+]1cccc(C(=O)N[C@@H](CO)C(=O)O)c1.[Cl-] [serdexmethylphenidate chloride]	0 (0.0) n (%)	0 (0.0) n (%)	2 (6.5) n (%)	4 (12.9) n (%)	1 (3.2) n (%)	2 (6.5) n (%)	0 (0.0) n (%)	0 (0.0) n (%)	1 (3.2) n (%)	0 (0.0) n (%)	1 (3.2) n (%)	4 (12.9) n (%)	0 (0.0) n (%)	0 (0.0) n (%)	0 (0.0) n (%)	0 (0.0) n (%)	1 (3.2) n (%)	0 (0.0) n (%)
